# Laboratory results: patent EP0308983A2, “NMR imaging with Mn(II) coordination compositions” (priority 1987, dated 1989)
# Test: Paramagnetic relaxation properties in water at 10 MHz (0.15T), RADX spin analyzer
# Assay type: physicochemical
# Details: 0.97 mM solution in water, 10 MHz (0.15T), 37°C, triplicate, mean +/- SD
# Experimental: The paramagnetic relaxation properties of [manganese(II)·(H₂O)₂·(L-alanine)₂]⁺²(Cl₂)⁻² in water were measured at 10 MHz (0.15T) with a spin analyzer (RADX; Houston, TX) at 37°C. After thermal equilibrium, the spin-lattice (T₁) and spin-spin (T₂) relaxation values were measured in triplicate.
# The paramagnetic relaxation of the title compound in water was measured at 10 MHz (0.15T) with a spin analyzer (RADX; Houston, TX). After thermal equilibrium, the spin-lattice (T₁) and spin-spin (T₂) relaxation values were measured.
# Relaxivity was measured at 10 MHz (0.15T) as described in Example 10.
# The relaxivity of the title compound was performed at 0.15 T (10 MHz) with a RADX Spin Analyzer (Houston, TX) at 37°C.
spin-lattice (T₁) relaxation value [ms],spin-spin (T₂) relaxation value [ms],SMILES
112 ± 4,29 ± 1,N[C@@H](Cc1c[nH]cn1)C(=O)O.N[C@@H](Cc1c[nH]cn1)C(=O)O.O.O.[Cl-].[Cl-].[Mn+2] [[Manganese(II)·(H₂O)₂·(L-histidine)₂]⁺²(Cl₂)⁻²]

# Same assay, conditions: 0.98 mM solution in water, 10 MHz (0.15T), 37°C, triplicate, mean +/- SD
SMILES,spin-lattice (T₁) relaxation value [ms],spin-spin (T₂) relaxation value [ms]
O.O.O=C(O)[C@@H]1C[C@@H](O)CN1.O=C(O)[C@@H]1C[C@@H](O)CN1.[Cl-].[Cl-].[Mn+2] [[Manganese(II)·(H₂O)₂·(L-hydroxyproline)₂]⁺²(Cl₂)⁻²],111 ± 3,26 ± 1
C[NH2+]CC(=O)[O-].C[NH2+]CC(=O)[O-].O.O.[Cl-].[Cl-].[Mn+2] [Manganese(II)·(H₂O)₂·(L-sarcosine)₂]⁺²(Cl₂)⁻²],111 ± 2,26 ± 1

# Same assay, conditions: in water, 10 MHz (0.15T); calculated from T₁ and concentration
row,millimolar relaxivity for T₁ [mM⁻¹ s⁻¹],SMILES
1,9.19,C[NH2+]CC(=O)[O-].C[NH2+]CC(=O)[O-].O.O.[Cl-].[Cl-].[Mn+2] [Manganese(II)·(H₂O)₂·(L-sarcosine)₂]⁺²(Cl₂)⁻²]
2,9.20,N[C@@H](Cc1c[nH]cn1)C(=O)O.N[C@@H](Cc1c[nH]cn1)C(=O)O.O.O.[Cl-].[Cl-].[Mn+2] [[Manganese(II)·(H₂O)₂·(L-histidine)₂]⁺²(Cl₂)⁻²]

row,SMILES,millimolar relaxivity for T₁ [mM⁻¹ s⁻¹]
1,O.O.O=C(O)[C@@H]1C[C@@H](O)CN1.O=C(O)[C@@H]1C[C@@H](O)CN1.[Cl-].[Cl-].[Mn+2] [[Manganese(II)·(H₂O)₂·(L-hydroxyproline)₂]⁺²(Cl₂)⁻²],9.19

# Same assay, conditions: in water, 10 MHz (0.15T); calculated from T₂ and concentration
row,millimolar relaxivity for T₂ [mM⁻¹ s⁻¹],SMILES
1,39.3,C[NH2+]CC(=O)[O-].C[NH2+]CC(=O)[O-].O.O.[Cl-].[Cl-].[Mn+2] [Manganese(II)·(H₂O)₂·(L-sarcosine)₂]⁺²(Cl₂)⁻²]
2,35.6,N[C@@H](Cc1c[nH]cn1)C(=O)O.N[C@@H](Cc1c[nH]cn1)C(=O)O.O.O.[Cl-].[Cl-].[Mn+2] [[Manganese(II)·(H₂O)₂·(L-histidine)₂]⁺²(Cl₂)⁻²]

row,SMILES,millimolar relaxivity for T₂ [mM⁻¹ s⁻¹]
1,O.O.O=C(O)[C@@H]1C[C@@H](O)CN1.O=C(O)[C@@H]1C[C@@H](O)CN1.[Cl-].[Cl-].[Mn+2] [[Manganese(II)·(H₂O)₂·(L-hydroxyproline)₂]⁺²(Cl₂)⁻²],39.3

# Test: Paramagnetic relaxation properties in human plasma at 37°C
# Assay type: physicochemical
# Details: 92 µM final concentration, 37°C
row,T₂ value [ms],SMILES
1,186 ± 3,N[C@@H](Cc1c[nH]cn1)C(=O)O.N[C@@H](Cc1c[nH]cn1)C(=O)O.O.O.[Cl-].[Cl-].[Mn+2] [[Manganese(II)·(H₂O)₂·(L-histidine)₂]⁺²(Cl₂)⁻²]

# Same assay, conditions: 92 µM final concentration, 37°C, triplicate
row,T₁ value [ms],SMILES
1,235 ± 2,N[C@@H](Cc1c[nH]cn1)C(=O)O.N[C@@H](Cc1c[nH]cn1)C(=O)O.O.O.[Cl-].[Cl-].[Mn+2] [[Manganese(II)·(H₂O)₂·(L-histidine)₂]⁺²(Cl₂)⁻²]

# Same assay, conditions: 93 µM final concentration, 37°C
row,SMILES,T₂ value [ms]
1,O.O.O=C(O)[C@@H]1C[C@@H](O)CN1.O=C(O)[C@@H]1C[C@@H](O)CN1.[Cl-].[Cl-].[Mn+2] [[Manganese(II)·(H₂O)₂·(L-hydroxyproline)₂]⁺²(Cl₂)⁻²],189 ± 9
2,C[NH2+]CC(=O)[O-].C[NH2+]CC(=O)[O-].O.O.[Cl-].[Cl-].[Mn+2] [Manganese(II)·(H₂O)₂·(L-sarcosine)₂]⁺²(Cl₂)⁻²],194 ± 16

# Same assay, conditions: 93 µM final concentration, 37°C, triplicate
row,SMILES,T₁ value [ms]
1,O.O.O=C(O)[C@@H]1C[C@@H](O)CN1.O=C(O)[C@@H]1C[C@@H](O)CN1.[Cl-].[Cl-].[Mn+2] [[Manganese(II)·(H₂O)₂·(L-hydroxyproline)₂]⁺²(Cl₂)⁻²],246 ± 13
2,C[NH2+]CC(=O)[O-].C[NH2+]CC(=O)[O-].O.O.[Cl-].[Cl-].[Mn+2] [Manganese(II)·(H₂O)₂·(L-sarcosine)₂]⁺²(Cl₂)⁻²],232 ± 2

# Same assay, conditions: 37°C
R₁ [mM⁻¹ s⁻¹],R₂ [mM⁻¹ s⁻¹],SMILES
46.4,55.4,C[NH2+]CC(=O)[O-].C[NH2+]CC(=O)[O-].O.O.[Cl-].[Cl-].[Mn+2] [Manganese(II)·(H₂O)₂·(L-sarcosine)₂]⁺²(Cl₂)⁻²]
46.3,58.4,N[C@@H](Cc1c[nH]cn1)C(=O)O.N[C@@H](Cc1c[nH]cn1)C(=O)O.O.O.[Cl-].[Cl-].[Mn+2] [[Manganese(II)·(H₂O)₂·(L-histidine)₂]⁺²(Cl₂)⁻²]

SMILES,R₁ [mM⁻¹ s⁻¹],R₂ [mM⁻¹ s⁻¹]
O.O.O=C(O)[C@@H]1C[C@@H](O)CN1.O=C(O)[C@@H]1C[C@@H](O)CN1.[Cl-].[Cl-].[Mn+2] [[Manganese(II)·(H₂O)₂·(L-hydroxyproline)₂]⁺²(Cl₂)⁻²],43.7,56.9

# Same assay, conditions: 37°C, repeat measurement 80 minutes later
T₁ changed by (repeat measurement),T₂ changed by (repeat measurement) [%],SMILES
6%,4,C[NH2+]CC(=O)[O-].C[NH2+]CC(=O)[O-].O.O.[Cl-].[Cl-].[Mn+2] [Manganese(II)·(H₂O)₂·(L-sarcosine)₂]⁺²(Cl₂)⁻²]
12%,1,N[C@@H](Cc1c[nH]cn1)C(=O)O.N[C@@H](Cc1c[nH]cn1)C(=O)O.O.O.[Cl-].[Cl-].[Mn+2] [[Manganese(II)·(H₂O)₂·(L-histidine)₂]⁺²(Cl₂)⁻²]

SMILES,T₁ changed by (repeat measurement),T₂ changed by (repeat measurement) [%]
O.O.O=C(O)[C@@H]1C[C@@H](O)CN1.O=C(O)[C@@H]1C[C@@H](O)CN1.[Cl-].[Cl-].[Mn+2] [[Manganese(II)·(H₂O)₂·(L-hydroxyproline)₂]⁺²(Cl₂)⁻²],did not change,1

# Same assay, conditions: versus GdDTPA
row,"T₂ relaxivity in plasma, fold greater than GdDTPA [fold]",SMILES
1,11.5,C[NH2+]CC(=O)[O-].C[NH2+]CC(=O)[O-].O.O.[Cl-].[Cl-].[Mn+2] [Manganese(II)·(H₂O)₂·(L-sarcosine)₂]⁺²(Cl₂)⁻²]
2,12.2,N[C@@H](Cc1c[nH]cn1)C(=O)O.N[C@@H](Cc1c[nH]cn1)C(=O)O.O.O.[Cl-].[Cl-].[Mn+2] [[Manganese(II)·(H₂O)₂·(L-histidine)₂]⁺²(Cl₂)⁻²]

row,SMILES,"T₂ relaxivity in plasma, fold greater than GdDTPA [fold]"
1,O.O.O=C(O)[C@@H]1C[C@@H](O)CN1.O=C(O)[C@@H]1C[C@@H](O)CN1.[Cl-].[Cl-].[Mn+2] [[Manganese(II)·(H₂O)₂·(L-hydroxyproline)₂]⁺²(Cl₂)⁻²],11.9

# Same assay, conditions: versus gadolinium diethylenetriaminepentaacetic acid chelate (GdDTPA)
row,"T₁ relaxivity in plasma, fold greater than GdDTPA [fold]",SMILES
1,9.7,C[NH2+]CC(=O)[O-].C[NH2+]CC(=O)[O-].O.O.[Cl-].[Cl-].[Mn+2] [Manganese(II)·(H₂O)₂·(L-sarcosine)₂]⁺²(Cl₂)⁻²]
2,9.7,N[C@@H](Cc1c[nH]cn1)C(=O)O.N[C@@H](Cc1c[nH]cn1)C(=O)O.O.O.[Cl-].[Cl-].[Mn+2] [[Manganese(II)·(H₂O)₂·(L-histidine)₂]⁺²(Cl₂)⁻²]

row,SMILES,"T₁ relaxivity in plasma, fold greater than GdDTPA [fold]"
1,O.O.O=C(O)[C@@H]1C[C@@H](O)CN1.O=C(O)[C@@H]1C[C@@H](O)CN1.[Cl-].[Cl-].[Mn+2] [[Manganese(II)·(H₂O)₂·(L-hydroxyproline)₂]⁺²(Cl₂)⁻²],9.1
